Measured values from PubChem BioAssay AID1963826 (Molecular Pharmacology Branch, DTP, NCI, 2024).

Tested on: 926638-142-R-J1-PDC complex spheroid viability
Experiment: Anticancer human tumor 926638-142-R-J1-PDC patient-derived endometrial carcinoma cell line growth inhibition [POLQ]
Details: for IC50: curve of first compound; for viability, T/C: stronger effect = lower value
Method: Multicellular complex tumor spheroid response to Polymerase (POL) inhibitors (novobiocin, ART-558, RP6685) in combination with a variety of drugs and investigational agents in selected tumor cell lines
The POL inhibitors (novobiocin, ART-558, and RP6685) were evaluated both individually and in combination with standard of care and investigational anticancer small molecules within a complex spheroid model of solid tumors. . Complex spheroids include a stromal component modeled by human endothelial cells (HUVEC) and fibroblasts modeled by human mesenchymal stem cells (MSCs). The concentration ranges selected for each drug and investigational agent were based upon clinically achievable concentrations if the clinical Cmax of the agent was known.
Compounds. The drugs and investigational agents: novobiocin (NSC847541), ART-558 (NSC835418), RP-6685 (NSC848927), peposertib (NSC802822), ceralasertib (NSC780249), elimusertib (NSC800525), camonsertib (NSC841442), AZD-1390 (NSC803789), olaparib (NSC753686), talazoparib (NSC767125), rucaparib (NSC756644), sotorasib (NSC818433), MRTX-1133 (NSC836407), SN-38 (NSC673596), topotecan (NSC609699), epotoside (NSC141540), doxorubicin (NSC123127), gemcitabine (NSC613327), 5-fluorouracil (NSC19893), paclitaxel (NSC125973), vemurafenib (NSC761431), MSA-2 (NSC828583), SN-011 (NSC837082), adavosertib (NSC754352), prexasertib (NSC758257), carboplatin (NSC241240) and oxaliplatin (NSC266046), were obtained from the National Cancer Institute (NCI) Developmental Therapeutics Program Chemical Repository (21). The FDA-approved anticancer drug set is available from the Developmental Therapeutics Program at https://dtp.cancer.gov/organization/dscb/obtaining/. […] The stock solutions were prepared in dimethyl sulfoxide (DMSO, Sigma-Aldrich, St. Louis, MO, cat. D2650), except for the platinum compounds which were prepared in saline (Quality Biological, Gaithersburg, MD, cat. 114-055-101), at 800-fold the tested concentration and stored at -70 degrees C prior to their use. All drugs and investigational agents were tested over a range starting from a high concentration at or near the clinical Cmax and decreasing in half-log increments. If the clinical Cmax for an agent had not been determined, the highest concentration tested was 10 microM, except for SN-38, which was tested at a high concentration of 1 microM.
Cell Culture. All cells were maintained in an incubator at 37 degrees C and 5% CO2 with 95% humidity. The PDC lines were cultured according to standard operating procedures established by the NCI PDMR (https://pdmr.cancer.gov). Table 3 of the manuscript, lists the cell lines along with the number of the three cell types plated to form the mct-spheroids and media for tumor cell growth. After thawing, all PDC lines, except 997537-175-T-J1-PDC and 415267-285-R-J2-PDC, were cultured in Matrigel-coated flasks prepared with a working solution of 1X Ham's F-12 nutrient mix, without supplementation (Thermo Fisher Scientific, cat. 11765054), 100 U/mL penicillin-streptomycin (Thermo Fisher Scientific, cat. 15140122), and 2.5% Matrigel (Corning Inc., Corning, NY, cat. 354248) for the first three passages. The two PDC lines 997537-175-T-J1-PDC and 415267-285-R-J2-PDC were cultured on uncoated flasks. The 857933-349-R-J2-PDC line was cultured in 6C/Colon 1B media containing advanced DMEM/F-12 (Thermo Fisher Scientific, cat. 12634028), 10 mM HEPES (Thermo Fisher Scientific, cat. 15630080), 1X GlutaMAX supplement (Thermo Fisher Scientific, cat. 35050061), 0.1 mg/mL primocin (InvivoGen, San Diego, CA, cat. ant-pm-2), 10% defined fetal bovine serum, heat inactivated (HyClone Laboratories Inc., Logan, UT, cat. SH30070.03HI), 50% L-WRN conditioned media (ATCC, cat. CRL-3276), 1.25 mM N-Acetyl-L-cysteine (Sigma-Aldrich, cat. A9165), 10 mM nicotinamide (Sigma-Aldrich, cat. N0636), 1X B-27 supplement (Thermo Fisher Scientific, cat. 17504044), 1X N-2 supplement (Thermo Fisher Scientific, cat. […]
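Note: spheroids exposed to drugs for one week before readout.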
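Throughout, for viability, T/C: percent viability relative to DMSO vehicle control wells set as 100%.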

## O=C(c1cc(Cc2n[nH]c(=O)c3ccccc23)ccc1F)N1CCN(C(=O)C2CC2)CC1 + Cc1cccc(N(C)C(=O)C2C(O)CCN2c2nc(C)cc(C(F)(F)F)c2C#N)c1
Second compound 0.0316 µM
  IC50: > 10 µM
Second compound 0.1 µM
  IC50: > 10 µM
Second compound 0.316 µM
  IC50: > 10 µM
Second compound 1 µM
  IC50: > 10 µM
Second compound 3.16 µM
  IC50: > 10 µM
Second compound 10 µM
  IC50: > 10 µM
Second compound 0.0316 µM, first compound 0.0316 µM
  viability, T/C: 102%
Second compound 0.0316 µM, first compound 0.1 µM
  viability, T/C: 93%
Second compound 0.0316 µM, first compound 0.316 µM
  viability, T/C: 92.1%
Second compound 0.0316 µM, first compound 1 µM
  viability, T/C: 87.2%
Second compound 0.0316 µM, first compound 3.16 µM
  viability, T/C: 74.5%
Second compound 0.0316 µM, first compound 10 µM
  viability, T/C: 79.1%
Second compound 0.1 µM, first compound 0.0316 µM
  viability, T/C: 114%
Second compound 0.1 µM, first compound 0.1 µM
  viability, T/C: 87.8%
Second compound 0.1 µM, first compound 0.316 µM
  viability, T/C: 92.4%
Second compound 0.1 µM, first compound 1 µM
  viability, T/C: 88.3%
Second compound 0.1 µM, first compound 3.16 µM
  viability, T/C: 77.6%
Second compound 0.1 µM, first compound 10 µM
  viability, T/C: 79.1%
Second compound 0.316 µM, first compound 0.0316 µM
  viability, T/C: 101%
Second compound 0.316 µM, first compound 0.1 µM
  viability, T/C: 91.6%
Second compound 0.316 µM, first compound 0.316 µM
  viability, T/C: 82.9%
Second compound 0.316 µM, first compound 1 µM
  viability, T/C: 85.9%
Second compound 0.316 µM, first compound 3.16 µM
  viability, T/C: 85.8%
Second compound 0.316 µM, first compound 10 µM
  viability, T/C: 86.5%
Second compound 1 µM, first compound 0.0316 µM
  viability, T/C: 86.5%
Second compound 1 µM, first compound 0.1 µM
  viability, T/C: 83.5%
Second compound 1 µM, first compound 0.316 µM
  viability, T/C: 91.5%
Second compound 1 µM, first compound 1 µM
  viability, T/C: 91.8%
Second compound 1 µM, first compound 3.16 µM
  viability, T/C: 67.5%
Second compound 1 µM, first compound 10 µM
  viability, T/C: 87.2%
Second compound 3.16 µM, first compound 0.0316 µM
  viability, T/C: 76.4%
Second compound 3.16 µM, first compound 0.1 µM
  viability, T/C: 98.2%
Second compound 3.16 µM, first compound 0.316 µM
  viability, T/C: 101%
Second compound 3.16 µM, first compound 1 µM
  viability, T/C: 79.9%
Second compound 3.16 µM, first compound 3.16 µM
  viability, T/C: 86.3%
Second compound 3.16 µM, first compound 10 µM
  viability, T/C: 69.8%
Second compound 10 µM, first compound 0.0316 µM
  viability, T/C: 72.3%
Second compound 10 µM, first compound 0.1 µM
  viability, T/C: 80%
Second compound 10 µM, first compound 0.316 µM
  viability, T/C: 78.9%
Second compound 10 µM, first compound 1 µM
  viability, T/C: 75.7%
Second compound 10 µM, first compound 3.16 µM
  viability, T/C: 69.8%
Second compound 10 µM, first compound 10 µM
  viability, T/C: 71.1%
